Assay results taken from US20160095843A1, “PYRAZOLOPYRROLIDINE DERIVATIVES AND THEIR USE IN THE TREATMENT OF DISEASE” (NOVARTIS AG, priority 2013, published 2016).

Legend:
THP-1 cells = experiment: Cell growth inhibition assay (CellTiter-Glo), THP-1; format: cell-based; settings: Homo sapiens
Procedure: (§1) Cell Growth Inhibition Assay
(§2) The human leukemia cell lines MV-4-11, THP-1 and K-562 were employed to characterize the effect of BET inhibitors on cellular proliferation and viability. Cells were obtained from the American Type Culture Collection (ATCC) and cultured at 37° C. in a humidified 5% CO2 incubator in the following media: MV-4-11: DMEM high glucose (Animed #1-26F01-I), 10% FCS (Animed #2-01F26-I), 4 mM L-Glutamine (Animed #5-10K50), 1 mM Sodium Pyruvate (Animed # G03625P), 1× Penicillin-Streptomycin (Animed # F12478P); K-562: Iscove's MEM (Animed #1-28F16-I), 10% FCS (Animed #2-01F26-I), 4 mM L-Glutamine (Animed #5-10K50), 1× Penicillin-Streptomycin (Animed # F12478P); THP-1: RPMI-1640 (Animed #1-41F01-I), 10% FCS (Animed #2-01F26-I), 2 mM L-Glutamine (Animed #5-10K50), 10 mM HEPES (Animed #5-31F100), 1 mM Sodium Pyruvate (Animed # G03625P), 1× Penicillin-Streptomycin (Animed # F12478P). The AML lines MV-4-11 and THP-1 are very sensitive to BET inhibitors and show massive cell death upon BET inhibition (Zuber et al., Nature, 478 (2011), 524-8). Compound-mediated suppression of cell proliferation/viability was assessed by quantification of cellular ATP levels using the CellTiter-Glo (CTG) reagent (Promega). Briefly, cells were seeded in 20 μl fresh medium into 384-well plates, followed by addition of 5 μL medium containing compound dilutions at 5-fold their final intended concentration. Dose-response effects were assessed by 3-fold serial dilutions of the test compound, starting at 10 μM. Following incubation of the cells for 4 days at 37° C. and 5% CO2, the effect of inhibitors on cell viability was quantified following addition of 20 μl CTG and luminescence quantification (integration time: 100 ms) as per vendor manual, using a correspondingly equipped Tecan M200 multi-mode platereader (TECAN, Switzerland). For data analysis, the assay background value determined in wells containing medium, but no cells, was subtracted from all data points. To enable differentiation of cytotoxic from cytostatic compounds, the number of viable cells is assessed relative to that observed at the time of compound addition using a separate cell plate (day 0). The effect of a particular test compound concentration on cell proliferation/viability is expressed as percentage of the background- and day 0-corrected luminescence reading obtained for cells treated with vehicle only (DMSO, 0.1% final concentration), which is set as 100%, whereas that luminescence reading for wells containing medium is set as −100%. Compound concentrations leading to half-maximal (1050) and total growth inhibition (TGI) were determined using standard four parameter curve fitting.

MV-4-11 cells = experiment: Cell growth inhibition assay (CellTiter-Glo), MV-4-11; format: cell-based; settings: Homo sapiens, MV4-11
Procedure: as §1, §2

K-562 cells = experiment: Cell growth inhibition assay (CellTiter-Glo), K-562; format: cell-based, human; settings: for GI50: Homo sapiens, K562
Procedure: as §1, §2

GI50 (THP-1 cells) [nM] | GI50 (MV-4-11 cells) [nM] | GI50 (K-562 cells) [nM] | Compound | IC (TGI) (K-562 cells) [nM]
64.8 | 27.6 | 292 | Cc1cc(N2C(=O)c3nn(C(C)C)c(C)c3C2c2ccc(Cl)cc2)cn(C)c1=O (stereo not drawn) [Example 64, 4-(4-chlorophenyl)-5-(1,5-dimethyl-6-oxo-1,6-dihydropyridin-3-yl)-2-isopropyl-3-methyl-4,5-dihydropyrrolo-[3,4-c]pyrazol-6(2H)-one] | –
121 | 67.5 | 554 | Cc1c2c(nn1C(C)C)C(=O)N(c1cc(Cl)c(=O)n(C)c1)C2c1ccc(Cl)cc1 (stereo not drawn) [Example 65, 5-(5-chloro-1-methyl-6-oxo-1,6-dihydropyridin-3-yl)-4-(4-chlorophenyl)-2-isopropyl-3-methyl-4,5-dihydropyrrolo-[3,4-c]pyrazol-6(2H)-one] | –
126 | 67.7 | 908 | Cc1nn(C(C)C)c2c1C(c1ccc(Cl)cc1)N(c1cc(Cl)c(=O)n(C)c1)C2=O (stereo not drawn) [Example 66, 5-(5-chloro-1-methyl-6-oxo-1,6-dihydropyridin-3-yl)-4-(4-chlorophenyl)-1-isopropyl-3-methyl-4,5-dihydropyrrolo-[3,4-c]pyrazol-6(1H)-one] | –
20.3 | 8.55 | 47.4 | COc1ncc(-n2nc3c(c2C(C)C)C(c2ccc(Cl)cc2)N(c2cc(C)c4nnc(C)n4c2)C3=O)c(OC)n1 (stereo not drawn) [Example 67, 4-(4-chlorophenyl)-2-(2,4-dimethoxypyrimidin-5-yl)-5-(3,8-dimethyl-[1,2,4]triazolo-[4,3-a]pyridin-6-yl)-3-isopropyl-4,5-dihydropyrrolo-[3,4-c]pyrazol-6(2H)-one] | –
47.7 | 30.1 | 157 | CCc1c2c(nn1C1CC1)C(=O)N(c1cc(C)c(=O)n(C)c1)C2c1ccc(Cl)cc1 (stereo not drawn) [Example 68, 4-(4-chlorophenyl)-2-cyclopropyl-5-(1,5-dimethyl-6-oxo-1,6-dihydropyridin-3-yl)-3-ethyl-4,5-dihydropyrrolo-[3,4-c]pyrazol-6(2H)-one] | –
44.2 | 27.4 | 135 | CCc1nn(C2CC2)c2c1C(c1ccc(Cl)cc1)N(c1cc(C)c(=O)n(C)c1)C2=O (stereo not drawn) [Example 69, 4-(4-chlorophenyl)-1-cyclopropyl-5-(1,5-dimethyl-6-oxo-1,6-dihydropyridin-3-yl)-3-ethyl-4,5-dihydropyrrolo-[3,4-c]pyrazol-6(1H)-one] | –
12.2 | 9.02 | 60.8 | CCc1nn(C2CC2)c2c1C(c1ccc(Cl)cc1)N(c1cc(C)c3nnc(C)n3c1)C2=O (stereo not drawn) [Example 70, 4-(4-chlorophenyl)-1-cyclopropyl-5-(3,8-dimethyl-[1,2,4]triazolo[4,3-a]pyridin-6-yl)-3-ethyl-4,5-dihydropyrrolo-[3,4-c]pyrazol-6(1H)-one] | –
75.6 | 66.6 | 345 | COc1ncccc1-n1nc(C)c2c1C(=O)N(c1cc(C)c(=O)n(C)c1)C2c1ccc(Cl)cc1 (stereo not drawn) [Example 71, 4-(4-chlorophenyl)-5-(1,5-dimethyl-6-oxo-1,6-dihydropyridin-3-yl)-1-(2-methoxypyridin-3-yl)-3-methyl-4,5-dihydropyrrolo-[3,4-c]pyrazol-6(1H)-one] | >10000
223 | 100 | 766 | COc1ncccc1-n1nc(C)c2c1C(=O)N(c1cc(Cl)c(=O)n(C)c1)C2c1ccc(Cl)cc1 (stereo not drawn) [Example 72, 5-(5-chloro-1-methyl-6-oxo-1,6-dihydropyridin-3-yl)-4-(4-chlorophenyl)-1-(2-methoxypyridin-3-yl)-3-methyl-4,5-dihydropyrrolo[3,4-c]pyrazol-6(1H)-one] | –
> 10000 | 3020 | > 10000 | Cc1cc(N2C(=O)c3nn(C)c(O)c3C2c2ccc(Cl)cc2)cn(C)c1=O (stereo not drawn) [Example 73, 4-(4-chlorophenyl)-5-(1,5-dimethyl-6-oxo-1,6-dihydropyridin-3-yl)-3-hydroxy-2-methyl-4,5-dihydropyrrolo[3,4-c]pyrazol-6(2H)-one] | –

The remaining lines, values behind:

Compound | GI50 (THP-1 cells) [nM] | GI50 (MV-4-11 cells) [nM] | GI50 (K-562 cells) [nM] | IC (TGI) (K-562 cells) [nM]
COc1ncc(-n2nc(C)c3c2C(=O)N(c2cc(Cl)c(=O)n(C)c2)C3c2ccc(Cl)cc2)c(OC)n1 (stereo not drawn) [Example 53, 5-(5-chloro-1-methyl-6-oxo-1,6-dihydropyridin-3-yl)-4-(4-chlorophenyl)-1-(2,4-dimethoxypyrimidin-5-yl)-3-methyl-4,5-dihydropyrrolo[3,4-c]pyrazol-6(1H)-one] | 374 | 249 | 953 | –
COc1ncc(-n2nc3c(c2C(C)C)C(c2ccc(Cl)cc2)N(c2ccc4onc(C)c4c2)C3=O)c(OC)n1 (stereo not drawn) [Example 54, 4-(4-chlorophenyl)-2-(2,4-dimethoxypyrimidin-5-yl)-3-isopropyl-5-(3-methylbenzo-[d]isoxazol-5-yl)-4,5-dihydropyrrolo[3,4-c]pyrazol-6(2H)-one] | 637 | 458 | 1530 | –
COc1ncc(-n2nc3c(c2C)C(c2ccc(Cl)cc2)N(c2cc(Cl)c(=O)n(C)c2)C3=O)c(OC)n1 (stereo not drawn) [Example 55, 5-(5-chloro-1-methyl-6-oxo-1,6-dihydropyridin-3-yl)-4-(4-chlorophenyl)-2-(2,4-dimethoxypyrimidin-5-yl)-3-methyl-4,5-dihydropyrrolo[3,4-c]pyrazol-6(2H)-one] | 231 | 89.1 | 400 | –
COc1ncc(-n2nc3c(c2C)C(c2ccc(Cl)cc2)N(c2cc(C)c(=O)n(C)c2)C3=O)c(OC)n1 (stereo not drawn) [Example 56, 4-(4-chlorophenyl)-2-(2,4-dimethoxypyrimidin-5-yl)-5-(1,5-dimethyl-6-oxo-1,6-dihydropyridin-3-yl)-3-methyl-4,5-dihydropyrrolo[3,4-c]pyrazol-6(2H)-one] | 70.2 | 57.4 | 265 | –
Cc1nn(C)c2c1C(c1ccc(Cl)cc1)N(c1cc(C)c(=O)n(C)c1)C2=O (stereo not drawn) [Example 57, 4-(4-chlorophenyl)-5-(1,5-dimethyl-6-oxo-1,6-dihydropyridin-3-yl)-1,3-dimethyl-4,5-dihydropyrrolo-[3,4-c]pyrazol-6(1H)-one] | 117 | 69.5 | 480 | –
Cc1nn(C)c2c1C(c1ccc(Cl)cc1)N(c1cc(Cl)c(=O)n(C)c1)C2=O (stereo not drawn) [Example 58, 5-(5-chloro-1-methyl-6-oxo-1,6-dihydropyridin-3-yl)-4-(4-chlorophenyl)-1,3-dimethyl-4,5-dihydropyrrolo[3,4-c]pyrazol-6(1H)-one] | 189 | 94.4 | 1140 | –
COc1nccc(-n2nc(C)c3c2C(=O)N(c2cc(C)c(=O)n(C)c2)C3c2ccc(Cl)cc2)n1 (stereo not drawn) [Example 59, 4-(4-chlorophenyl)-5-(1,5-dimethyl-6-oxo-1,6-dihydropyridin-3-yl)-1-(2-methoxypyrimidin-4-yl)-3-methyl-4,5-dihydropyrrolo[3,4-c]pyrazol-6(1H)-one] | 317 | 220 | 1250 | –
CCc1nn(-c2cnc(OC)nc2OC)c2c1C(c1ccc(Cl)cc1)N(c1cc(C)c(=O)n(C)c1)C2=O (stereo not drawn) [Example 60, 4-(4-chlorophenyl)-1-(2,4-dimethoxypyrimidin-5-yl)-5-(1,5-dimethyl-6-oxo-1,6-dihydropyridin-3-yl)-3-ethyl-4,5-dihydropyrrolo[3,4-c]pyrazol-6(1H)-one] | 166 | 86.9 | 456 | –
COc1ncc(-n2nc3c(c2C(C)C)[C@@H](c2ccc(Cl)cc2)N(c2cc(C)c4onc(C)c4c2)C3=O)c(OC)n1 [Example 62, (R)-4-(4-chlorophenyl)-2-(2,4-dimethoxypyrimidin-5-yl)-5-(3,7-dimethylbenzo[d]-isoxazol-5-yl)-3-isopropyl-4,5-dihydropyrrolo[3,4-c]pyrazol-6(2H)-one] | 97.7 | 58.4 | 316 | >10000
Cc1nn(C(C)C)c2c1C(c1ccc(Cl)cc1)N(c1cc(C)c(=O)n(C)c1)C2=O (stereo not drawn) [Example 63, 4-(4-chlorophenyl)-5-(1,5-dimethyl-6-oxo-1,6-dihydropyridin-3-yl)-1-isopropyl-3-methyl-4,5-dihydropyrrolo[3,4-c]pyrazol-6(1H)-one] | 61.9 | 25.8 | 314 | >10000
